Test results reported in patent US8293979B2, “Weed controller metabolism proteins, genes, thereof and use of the same” (Sumitomo Chemical Company, Limited, priority 2001, dated 2012).

Assays:
Blackgrass = test: Herbicidal activity test, soil surface treatment; format: in vivo, Alopercurus myosuroides; set-up: key: 0: situations in which the condition of sprouting or vegetation at the time of examination of the plant utilized for the test was compared with and showed totally or substantially no difference with that of the untreated application; 10: situations in which the plant completely withered or the sprouting or vegetation was completely suppressed; conditions: 500 g/ha, sprayed onto the surface of the soil after seeding, investigated after 19 days in a greenhouse
Description: Soil was packed into a round plastic pot having a diameter of 10 cm and depth of 10 cm. Barnyardgrass, Blackgrass, Ivyleaf morningglory were seeded. Five (5) parts of the test compound, 6 parts of sorpol3005X (Toho Chemical Company) and 89 parts of xylene were well mixed to produce an emulsion. A certain amount thereof was diluted with water containing 0.1% (v/v) of a sticking agent at a proportion of 1000 L for 1 hectare and was spread uniformly with a spray-gun onto the surface of the soil. After cultivating the plants for 19 days in a greenhouse, the herbicidal activity was investigated.
In the above Tables 3 and 4, the strength of the herbicidal activity is shown stepwise as 0, 1, 2, 3, 4, 5, 6, 7, 8, 9, and 10.

[1] = test system: present invention protein (A19); test: Detection of the ability to convert compound (II) to compound (III), E. coli pKSN1502F extract; format: in vitro ADME, Streptomyces griseus IFO 13849T; conditions: 3 ppm of compound (II) labeled with 14C, components A, B, 10 minutes at 30° C.
Description: Reaction solutions of 30 μl were prepared and maintained for 10 minutes at 30° C. The reaction solutions consisted of a 0.1M potassium phosphate buffer (pH7.0) containing 3 ppm of compound (II) labeled with ^14C, 2 mM of β-NADPH (hereinafter, referred to as “component A”) (Oriental Yeast Company), 2 mg/ml of a ferredoxin derived from spinach (hereinafter referred to as “component B”) (Sigma Company), 0.1 U/ml of ferredoxin reductase (hereinafter, referred to as “component C”) (Sigma Company) and 23 μl of the supernatant fraction recovered in Example 32(2). Similarly to Example 4(3), the reaction solutions after the maintenance were extracted with ethyl acetate and the extracted layers were TLC analyzed. […] A spot corresponding to compound (III) was detected from the reaction solution containing E. coli pKSN849AF extract. In contrast, such a spot was not detected from the reaction solution containing E. coli pKSN2 extract.
Similarly to Example 32(3), reaction solutions of 30 μl were prepared and maintained for 10 minutes at 30° C. […] The reaction solutions after the maintenance were extracted with ethyl acetate and the extracted layers were TLC analyzed. […] A spot corresponding to compound (III) was detected from the reaction solution containing E. coli pKSN1502F extract. In contrast, such a spot was not detected from the reaction solution containing E. coli pKSN2 extract.

[2] = test system: Streptomyces catenulae IFO12848; test: Metabolism of compound (II) by a microorganism; format: in vitro ADME; conditions: compound (II) at 100 ppm, 7 to 8 days at 30° C.
Description: (§1) The HPLC for content analysis in Examples 1, 41 and 42 and fraction purification of the compound was conducted under the conditions shown below.
(§2) The various microorganisms shown in Tables 1 and 2 were grown in ISP2 agar medium (1.0% (w/v) malt extract, 0.4% (w/v) yeast extract, 0.4% (w/v) glucose, 2.0% (w/v) agar, pH 7.3). A “loopful” of the each microorganism was added to TGY medium (0.5% (w/v) tryptone, 0.5% (w/v) yeast extract, 0.1% (w/v) glucose, 0.01% (w/v) KH2PO4, pH 7.0) and incubated with shaking at 30° C. for 2 to 4 days. One-tenth milliliter (0.1 ml) of the obtained culture was incubated with shaking in 3 ml of sporulation medium (0.1% (w/v) of meat extract, 0.2% (w/v) tryptose, 1% glucose, pH 7.1) containing compound (II) at 100 ppm for 7 to 8 days at 30° C. Fifty microliters (50 μl) of 2N HCl was added to the resulting culture and this was extracted with 3 ml of ethyl acetate. The obtained ethyl acetate layer was analyzed on the HPLC. The concentration of compound (II) was reduced (column retention time of 23.9 minutes) and new peaks were detected for compounds at retention times of 21.6 minutes and 22.2 minutes (each referred to as metabolite (I) and metabolite (II)).

[3] = test system: Streptomyces roseochromogenes ATCC13400; test: Metabolism of compound (II) by a microorganism; format: in vitro ADME; conditions: compound (II) at 100 ppm, 7 to 8 days at 30° C.
Description: as §1, §2

[4] = test system: Streptomyces lydicus IFO13058; test: Metabolism of compound (II) by a microorganism; format: in vitro ADME; conditions: compound (II) at 100 ppm, 7 to 8 days at 30° C.
Description: as §1, §2

[5] = test system: Streptomyces roseochromogenes ATCC13400t; test: Metabolism of compound (II) by a microorganism; format: in vitro ADME; conditions: compound (II) at 100 ppm, 7 to 8 days at 30° C.
Description: as §1, §2

[6] = test system: Streptomyces erythreus ATCC11635; test: Metabolism of compound (II) by a microorganism; format: in vitro ADME; conditions: compound (II) at 100 ppm, 7 to 8 days at 30° C.
Description: as §1, §2

[7] = test system: Streptomyces achromogenes IFO12735; test: Metabolism of compound (II) by a microorganism; format: in vitro ADME; conditions: compound (II) at 100 ppm, 7 to 8 days at 30° C.
Description: as §1, §2

[8] = test system: Streptomyces griseus ATCC15395; test: Metabolism of compound (II) by a microorganism; format: in vitro ADME; conditions: compound (II) at 100 ppm, 7 to 8 days at 30° C.
Description: as §1, §2

[9] = test system: Streptomyces lavendulae ATCC11924; test: Metabolism of compound (II) by a microorganism; format: in vitro ADME; conditions: compound (II) at 100 ppm, 7 to 8 days at 30° C.
Description: as §1, §2

[10] = test system: Streptomyces griseus ATCC11429; test: Metabolism of compound (II) by a microorganism; format: in vitro ADME; conditions: compound (II) at 100 ppm, 7 to 8 days at 30° C.
Description: as §1, §2

[11] = test system: Streptomyces nogalater IFO13445; test: Metabolism of compound (II) by a microorganism; format: in vitro ADME; conditions: compound (II) at 100 ppm, 7 to 8 days at 30° C.
Description: as §1, §2

[12] = test system: Streptomyces kasugaensis ATCC15714; test: Metabolism of compound (II) by a microorganism; format: in vitro ADME; conditions: compound (II) at 100 ppm, 7 to 8 days at 30° C.
Description: as §1, §2

[13] = test system: Streptomyces griseofuscus IFO12870t; test: Metabolism of compound (II) by a microorganism; format: in vitro ADME; conditions: compound (II) at 100 ppm, 7 to 8 days at 30° C.
Description: as §1, §2

[14] = test system: Streptomyces testaceus ATCC21469; test: Metabolism of compound (II) by a microorganism; format: in vitro ADME; conditions: compound (II) at 100 ppm, 7 to 8 days at 30° C.
Description: as §1, §2

[15] = test system: Streptomyces globisporus subsp. globisporus ATCC21903; test: Metabolism of compound (II) by a microorganism; format: in vitro ADME; conditions: compound (II) at 100 ppm, 7 to 8 days at 30° C.
Description: as §1, §2

[16] = test system: Streptomyces thermocoerulescens IFO14273t; test: Metabolism of compound (II) by a microorganism; format: in vitro ADME; conditions: compound (II) at 100 ppm, 7 to 8 days at 30° C.
Description: as §1, §2

[17] = test system: Streptomyces rimosus ATCC10970; test: Metabolism of compound (II) by a microorganism; format: in vitro ADME; conditions: compound (II) at 100 ppm, 7 to 8 days at 30° C.
Description: as §1, §2

[18] = test system: Streptomyces griseus ATCC12475; test: Metabolism of compound (II) by a microorganism; format: in vitro ADME; conditions: compound (II) at 100 ppm, 7 to 8 days at 30° C.
Description: as §1, §2

SMILES: C[C@@H](Oc1cc(-n2c(=O)cc(C(F)(F)F)n(C)c2=O)c(F)cc1Cl)C(=O)O [compound (II)]
- Herbicidal Activity Blackgrass (Blackgrass): 10
- spot corresponding to compound (III) labeled with 14C (TLC) [1]: detected
- concentration of compound (II) [2]: 85.3 ppm
- concentration of compound (II) [3]: 81.9 ppm
- concentration of compound (II) [4]: 62.0 ppm
- concentration of compound (II) [5]: 71.8 ppm
- concentration of compound (II) [6]: 54.6 ppm
- concentration of compound (II) [7]: 0.0 ppm
- concentration of compound (II) [8]: 75.2 ppm
- concentration of compound (II) [9]: 89.6 ppm
- concentration of compound (II) [10]: 30.3 ppm
- concentration of compound (II) [11]: 12.8 ppm
- concentration of compound (II) [12]: 92.4 ppm
- concentration of compound (II) [13]: 49.5 ppm
- concentration of compound (II) [14]: 18.4 ppm
- concentration of compound (II) [15]: 79.9 ppm
- concentration of compound (II) [16]: 51.7 ppm
- concentration of compound (II) [17]: 70.9 ppm
- concentration of compound (II) [18]: 51.1 ppm
